Measurements as given in patent US20170027973A1, “MODULARION OF INVARIANT NATURAL KILLER T CELLS IN THE TREATMENT OF SEPSIS” (LONDON HEALTH SCIENCES CENTRE RESEARCH INC., priority 2014, published 2017).

Experiments:
[1] = tested on: surface TCR of iNKT cells; conditions: after 24 hours; cited from earlier work
[2] = tested on: Jα18−/− mice with IAS; experiment: IAS model in iNKT-deficient Jα18−/− mice: murine sepsis score; assay type: in vivo, mouse
Procedure: FIG. 4: Th2-polarizing glycolipid OCH reduces disease severity in IAS. C57BL/6 (B6) mice were concomitantly injected i.p. with fecal slurry (FS; 500 μL of 90 mg/mL solution) to induce intra-abdominal sepsis (IAS), and vehicle, OCH, or KRN7000. […] (c) iNKT-deficient Jα18−/− mice were given FS (500 μL of a 90 mg/mL solution) to induce IAS and concomitantly treated with OCH or vehicle. Murine sepsis scores were similar between vehicle and OCH-treated mice (n=3 per group). […] The percentages of T cells remained unchanged with administration of iNKT-specific glycolipid agonists (n=6, n=4, n=6, and n=3 for vehicle, OCH, Vehicle (KRN7000) and KRN7000 groups respectively). *p<0.05, **p<0.01 by Mann-Whitney U test. (d) Bacterial counts in blood and multiple organs were similar between vehicle-, OCH-, and KRN7000-treated mice with sepsis (n=7-9 per group). Data are representative of at least three independent experiments.
Stool from the cecum of euthanized naïve B6 mice was expressed through an enterotomy, homogenized, and suspended in 0.9% normal saline (NS) to produce a fecal slurry at a final concentration of 90 mg/mL, for use in experiments on the same day. […] The mice were monitored and scored by two independent investigators—one of whom was blinded to the treatment—every 2-3 hours for the first 12 hours, and then every 1-2 hours thereafter. […]

[3] = tested on: invariant TCR; conditions: OCH compared to KRN7000; cited from earlier work

Structure (SMILES) | potency at down-regulating the TCR relative to OCH [1] | disease severity (MSS) versus vehicle [2] | binding affinity for the invariant TCR [3]
CCCCCCCCCCCCCCCCCCCCCCCCCC(=O)N[C@@H](CO[C@H]1O[C@H](CO)[C@H](O)[C@H](O)[C@H]1O)[C@H](O)[C@H](O)CCCCCCCCCCCCCC [KRN7000, reference compound] | approximately 10 fold |  | 
CCCCCCCCCCCCCCCCCCCCCCCC(=O)N[C@@H](COC1OC(CO)C(O)C(O)C1O)[C@H](O)[C@H](O)CCCCC (stereo partly drawn) [OCH] |  | did not observe any differences | lower
